Literature values, collected in patent US20230337663A1, “AGRICULTURAL COMPOSITION” (REVOLUTION BIOTECH LLC, priority 2020, published 2023).

Settings: Ecolabel Lubricant Substance Classification List

Substance: Farnesene, mixture of isomers
- toxicity label: non-toxic
